# Experimental data taken from US20240409534A1, “CRYSTAL FORM OF METHYLPYRAZOLE-SUBSTITUTED PYRIDOIMIDAZOLE COMPOUND AND PREPARATION METHOD THEREFOR” (priority 2021, published 2024).
# Where two headings read alike, the source gives them in different places.
# Columns and labels:
# [1] = Pharmacokinetic evaluation in SD rats, intravenous and intragastric (Experimental Embodiment 3); type: in vivo; conditions: rat, plasma; for bioavailability: intragastric administration, read-out: drug bioavailability; for Cmax: read-out: peak concentration (Cmax); for Tmax: read-out: peak time (Tmax); for Vd: read-out: apparent volume of distribution at steady state (Vdss); for half-life: read-out: elimination half-life (T1/2) (converted); for clearance: read-out: plasma clearance (Cl)
# [2] = tested on: gastric cancer cells SNU-16 with high expression of FGFR2; assay: Cell proliferation inhibition, CellTiter-Glo, SNU-16; type: cell-based; conditions: Homo sapiens, 72 h, SNU-16, cultured for 3 days
# Excerpt: (§1) The compounds of the present disclosure can target and inhibit FGFR and VEGFR pathways, and inhibit tumor cell growth by inhibiting VEGF/VEGFR and FGF/FGFR signaling pathways. In this experiment, human non-small cell lung cancer cells NCI-H1581 with high expression of FGFR1, gastric cancer cells SNU-16 with high expression of FGFR2, and human bladder cancer cells RT112/84 with high expression of FGFR3 were selected. In this experiment, the inhibitory effect of compounds on cell proliferation was investigated by detecting the effect of the compounds of the present disclosure on the cell viability in vitro in the tumor cell lines NCI-H1581, SNU-16 and RT-112/84.
# (§2) Regular passage, and cells in logarithmic growth phase were taken for plating.
# (§3) • (1) Cells were stained with trypan blue and viable cells were counted. • (2) The cell concentration was adjusted to an appropriate concentration.
# (§4) • (3) 90 μL of cell suspension per well was added to a culture plate, and cell-free culture solution was added to the blank control well. • (4) The plate was cultured overnight in a 37° C., 5% CO2 incubator with 100% relative humidity.
# (§5) • (1) Preparation of 10× compound working solution: 78 μL of cell culture medium was added to a V-bottom 96-well plate, and 2 μL of compound was pipetted from a 400× compound storage plate and added to the cell culture medium of the 96-well plate. […]
# [3] = tested on: bladder cancer cells RT112/84 with high expression of FGFR3; assay: Cell proliferation inhibition, CellTiter-Glo, RT-112/84; type: cell-based; conditions: Homo sapiens, RT112/84, 72 h, RT-112/84, cultured for 3 days
# Excerpt: as §1, §2, §3, §4, §5
# [4] = Hygroscopicity study by dynamic vapor sorption (DVS); type: physicochemical; conditions: 25° C. and 80% RH
# Experimental: Instrument model: SMS Intrinsic Dynamic Vapor Sorption Analyzer
# Test conditions: Taking a sample (10 to 30 mg) and placing in a DVS sample dish for testing.
# Detailed DVS parameters are as follows: • Temperature: 25° C. • Equilibration: dm/dt=0.002%/min (minimum: 10 min, maximum: 180 min) RH range: 0% RH to 95% RH to 0% RH • RH gradient: 10% (90% RH to 0% RH to 90% RH) • 5% (95% RH to 90% RH and 90% RH to 95% RH)
# [5] = tested on: NCI-H1581 cells with high expression of FGFR1; assay: Cell proliferation inhibition, CellTiter-Glo, NCI-H1581; type: cell-based; conditions: Homo sapiens, 72 h, NCI-H1581, cultured for 3 days
# Excerpt: as §1, §2, §3, §4, §5
# Ba/F3-TEL-VEGFR2 = assay: In vitro proliferation of BaF3 cell line, Ba/F3-TEL-VEGFR2; type: cell-based; conditions: Ba/F3-TEL-VEGFR2, 72 h
# Experimental: The mother solution was prepared into a total of 9 concentration gradients (10.0000 mM, 2.5000 mM, 0.6250 mM, 0.1563 mM, 0.0391 mM, 0.0098 mM, 0.0024 mM, 0.0006 mM and 0.0002 mM) in a 4-fold dilution and stored in a 96-well plate (Beaver, Suzhou), while the same volume of DMSO solvent was used as a negative control. • 1. Cell suspension in logarithmic growth phase was taken and inoculated in a white 96-well cell culture plate (Corning 3917, NY, USA) with a volume of 95 μL per well (2000 cells/well). • 2. Diluted medium-compound mixture was added in a volume of 5 μL per well, respectively, and the final concentration of DMSO in Ba/F3-TEL-FLT1 (VEGFR1), Ba/F3-TEL-FLT4 (VEGFR3) and Ba/F3-TEL-VEGFR2 cells was 0.1%.
# • 3. The plate was incubated in a 37° C., 5% CO2 incubator for 72 h. • 4. The proliferation inhibitory activity and data analysis of the compound by CellTiter-Glo method were the same as in Experimental embodiment 1.
# [6] = po, female SD rats, single intragastric administration, 10 mg/kg
# [7] = po, female SD rats, single intragastric administration, 30 mg/kg
# [8] = po, female SD rats, single intragastric administration, 100 mg/kg
# [9] = po, male SD rats, single intragastric administration, 10 mg/kg
# [10] = po, male SD rats, single intragastric administration, 30 mg/kg
# [11] = po, male SD rats, single intragastric administration, 100 mg/kg
# [12] = female SD rats, single intravenous injection of 1 mg/kg
# [13] = male SD rats, single intravenous injection of 1 mg/kg
smiles,measurement,setting,value
CS(=O)(=O)O.Cn1cc(-c2ccn3c(-c4cc(NS(C)(=O)=O)nc(-c5ccc(F)cc5F)c4)cnc3c2)cn1,bioavailability,"[1]; po, female SD rats, 10 mg/kg",50.3%
same,AUC(0-t),[1]; [6],24.8 µM·h
same,Cmax,[1]; [6],9.17 µM
same,Tmax,[1]; [6],40 min
same,AUC(0-t),[1]; [7],65.6 µM·h
same,Cmax,[1]; [7],24.5 µM
same,Tmax,[1]; [7],60 min
same,AUC(0-t),[1]; [8],125 µM·h
same,Cmax,[1]; [8],27.4 µM
same,Tmax,[1]; [8],30 min
same,bioavailability,"[1]; po, male SD rats, 10 mg/kg",18%
same,AUC(0-t),[1]; [9],7.15 µM·h
same,Cmax,[1]; [9],3.78 µM
same,Tmax,[1]; [9],30 min
same,AUC(0-t),[1]; [10],38.2 µM·h
same,Cmax,[1]; [10],16.7 µM
same,Tmax,[1]; [10],60 min
same,AUC(0-t),[1]; [11],113 µM·h
same,Cmax,[1]; [11],19.9 µM
same,Tmax,[1]; [11],50 min
same,AUC(0-t),[1]; [12],4.93 µM·h
same,Vd,[1]; [12],0.366 L/kg
same,half-life,[1]; [12],45.9 min
same,clearance,[1]; [12],7.03 mL/min/kg
same,AUC(0-t),[1]; [13],3.98 µM·h
same,Vd,[1]; [13],0.419 L/kg
same,half-life,[1]; [13],40.5 min
same,clearance,[1]; [13],8.78 mL/min/kg
same,IC50,[2],44.5 nM
same,IC50,[3],167 nM
same,hygroscopic weight gain ΔW,[4],1.708%
same,IC50,[5],117 nM
same,Maximum inhibition,Ba/F3-TEL-VEGFR2,99.99%
same,Minimum inhibition,Ba/F3-TEL-VEGFR2,8.23%
same,IC50,"Ba/F3-TEL-VEGFR2; Mus musculus, BaF3, read-out: Relative IC50",~9.7 nM
